Measured values published in patent publication US12285392B2, “Method for modulating metabolism” (Brightseed, Inc., priority 2018, dated 2025).

Columns and labels:
pH stability assessment = assay type: physicochemical; settings: pH 2, 7.4, 8.5 and 10, 37° C., 0.5 and 72 hours
Method: pH Stability Assessment. Individual stock solutions were prepared in DMSO at concentrations of 10 mg/mL. Four different buffer solutions were prepared to achieve solutions with a pH of 2, 7.4, 8.5 and 10. For each pH assay, 5 μL of stock solution was added to 245 μL of buffered solution to a 2 mL tube, vortexed and incubated in a 37° C. water bath. At each timepoint, 50 μL aliquots were taken, neutralized and analyzed via HPLC analysis using a DAD detector at 280 nm. The fold change of the peak area at 280 nm was analyzed for the initial and final timepoint, 0.5 and 72 hours, respectively.

[1] = Hepatic microsome stability assay, human; assay type: in vitro ADME
Method: Hepatic Microsome Assay. Hepatic microsomes stability assays were performed in accordance with known methods (Peddibhotla, et al. (2013) ACS Med. Chem. Lett. 4:846-851). Briefly, 3 μL of 25 μM compound solution in acetonitrile were incubated with 123 μL of mouse, human or rat liver microsomes (Xenotech, Kansas City, Kans.). […] The microsomal concentrations used were 1.0 mg/mL. Compounds were incubated in microsomes for 0, 5, 15, 30 and 60 minutes. The reactions were stopped by the addition of ice cold ACN and the reaction mixtures were centrifuged at 10,000 g for 10 minutes before the supernatant was removed for analysis. A 10 μL portion of the resulting extract was injected on a Thermo HPLC system equipped with PAL CTC plate sampler (96-well plate), Dionex Ultimate 3000 binary pump (flow rate at 0.600 mL/min), Dionex Ultimate 3000 thermostatted column compartment (temperature at 40° C.), Thermo Endura Mass Spectrometer (ESI source), using a Thermo Scientific Accucore C18 (2.6 μM, 2.1×50 mm) column. A gradient was run starting at 95% H2O (0.1% formic acid) and 5% ACN (0.1% formic acid) during the first 0.5 min, then under gradient condition of 5-100% ACN (0.1% formic acid) from minute 0.5 to 3.5, finishing at 95% H2O (0.1% formic acid) and 5% ACN (0.1% formic acid) over 0.5 min, with another 1 min at 95:5 to re-equilibrate.

insulin mRNA = assay: Insulin mRNA levels by quantitative PCR; assay type: cell-based; settings: FIG. 2
Method: Expression of Insulin and HNF4α. RNA was purified using a RNEASY® chromatographic separation and isolation kits (Qiagen), and converted to cDNA using the gScript™ cDNA SuperMix (Quanta Biosciences). Q-PCR was conducted with cDNA corresponding to 2 μg of RNA using an Opticon Real-Time System (MJ Research) and QPCR SuperMix (BioPioneer). See All mRNA values were normalized to 18S rRNA values and are expressed as fold changes over vehicle-treated control.

T6PNE cells = assay: Lipid clearance in T6PNE cells (steatosis assay); assay type: cell-based
Method: T6PNE cells were pretreated for 1 day with 0.06 mM, 0.12 mM or 0.25 mM palmitate at which time 15 μM N-trans-caffeoyltyramine or control (DMSO) was added. Cells were harvested on day 3, 6 and 8 and subjected to staining with Nile Red and Oil Red O. Results are expressed as fold change in Nile Red staining: +palmitate/10% FBS medium (no palmitate)
Lipid Clearance in HepG2 and T6PNE Cells (Steatosis Assay). The steatosis assay was carried out as described (Kiselyuk, et al. (2012) Chem. Biol. 19(7):806-818) with the exception of the drug concentration, which was 20 μM for N-trans-caffeoyltyramine with 0.25 mM palmitate in HepG2 cell lines, and 10 μM of either N-trans-caffeoyltyramine, N-trans-caffeoyltyramine, or pcoumaroyltyramine, with 0.25 mM palmitate in T6PNE cell lines. Steatosis was assessed using the Oil Red 0 Method for Fats kits (Poly Scientific; Warrington, PA), per manufacturer's guidelines. Briefly, frozen tissue slides or fixed cells were incubated in neat propylene glycol for 2 minutes and Oil Red 0 solution for 15 hours for slides or 1 hour for fixed cells, differentiated in 85% propylene glycol solution for 1 minute, washed twice with distilled water and stained in Hematoxylin of 10 seconds. Slides were mounted with glycerin jelly mounting medium.

HNF4α = molecular target: T1, HNF4α (Homo sapiens, UniProt P41235); assay: Insulin promoter activity assay in T6PNE cells (HNF4α activity); assay type: cell-based
T1 construct: endogenous in cells; host or cells: T6PNE cells
T1 sequence (P41235 1-474): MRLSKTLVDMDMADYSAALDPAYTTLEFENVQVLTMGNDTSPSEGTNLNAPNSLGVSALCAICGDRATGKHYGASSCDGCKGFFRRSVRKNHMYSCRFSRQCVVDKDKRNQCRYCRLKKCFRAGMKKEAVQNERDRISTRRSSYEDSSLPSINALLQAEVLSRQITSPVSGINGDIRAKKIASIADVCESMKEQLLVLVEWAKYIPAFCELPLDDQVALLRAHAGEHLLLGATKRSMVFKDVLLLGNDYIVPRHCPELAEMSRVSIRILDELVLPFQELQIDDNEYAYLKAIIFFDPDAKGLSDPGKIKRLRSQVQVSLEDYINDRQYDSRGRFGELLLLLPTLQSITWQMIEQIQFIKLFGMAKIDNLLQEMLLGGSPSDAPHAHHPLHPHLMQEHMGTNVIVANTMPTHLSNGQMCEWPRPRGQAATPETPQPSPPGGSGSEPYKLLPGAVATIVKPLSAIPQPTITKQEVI
Method: Insulin Promoter Activity. T6PNE cells (Kiselyuk, et al. (2012) Chem Biol. 19(7):806-818; Kiselyuk, et al. (2010) J. Biomol. Screen 15(6):663-70) are seeded at 2000 cells per well in 384-well tissue culture plates in the presence of 1 μM tamoxifen and 0.03 mM palmitate. After a 24-hour incubation, a compound or extract of the invention is added to the cells. Forty-eight hours after compound or extract addition, cells are fixed in 4% paraformaldehyde and stained with DAPI. Blue (DAPI) and green (human insulin promoter driving GFP) channels are imaged.
Inhibition of HNF4α GFP Expression. Using the insulin promoter assay described herein, activity of HNF4α was assessed in the presence of BI-6015 (0, 2.5, 5 μM), a known antagonist of HNF4α (Kiselyuk, et al. (2012) Chem. Biol. 19(7):806-818), in combination with N-trans-caffeoyltyramine (0, 5, 10, 20 μM).
Given the role of HNF4α in maintaining a heal thy metabolism in humans, test compounds were screened for activity as HNF4α agonists (either direct or indirect effects). Using a known insulin promoter-reporter assay, Kiselyuk and colleagues (2010. J. Biomol. Screen 15(6):663-70), screened a library of compounds for activity to promote insulin activation. […] The OTC promoter is known to be responsive to HNF4α in transient transfection assays (Inoue, et al. (2002) J. Biol. Chem. 277:25257-65).

O=C(/C=C/c1ccc(O)c(O)c1)NCCc1ccc(O)cc1 [N-trans-caffeoyltyramine]
pH Stability (pH stability assessment): Acid Stable | Apparent major biotransformation pathway ([1]; human microsomes): oxidation of the left-hand aryl ring | % Remaining ([1]; human microsomes, 1 μM): 55.3% | % Remaining ([1]; human microsomes, 10 μM): 85.4% | Stability in hepatic microsomes ([1]; human, rat and mouse hepatic microsomes): stable | Insulin gene expression (insulin mRNA): upregulated | Fat accumulation (T6PNE cells; 10 μM, 0.25 mM palmitate): inhibition of fat accumulation | Lipid accumulation when palmitate was added prior to compound (T6PNE cells; FIG. 6, 15 μM): reduced lipid accumulation | Potency in activating HNF4α relative to Alverine (HNF4α; FIG. 1, insulin promoter activity dose-response): roughly an order-of-magnitude more potent than Alverine | HNF4α modulation in screening (HNF4α; screening in the HNF4α assay): able to act as HNF4α modulators
